Reference: ChEMBL document CHEMBL1140163 (J Med Chem, 2008)
pIC50: −log10 of the molar value.

Columns and labels:
[1] = target: Mast/stem cell growth factor receptor Kit (Homo sapiens, UniProt P10721); experiment: Inhibition of cKit
[2] = target: Mitogen-activated protein kinase 14 (Homo sapiens, UniProt Q16539)
[3] = target: Mitogen-activated protein kinase 8 (Homo sapiens, UniProt P45983); experiment: Inhibition of JNK1
[4] = target: Mitogen-activated protein kinase 9 (Homo sapiens, UniProt P45984); experiment: Inhibition of JNK2
[5] = target: Mitogen-activated protein kinase 10 (Homo sapiens, UniProt P53779); experiment: Inhibition of JNK3
THP-1 = experiment: Inhibition of LPS-induced TNFalpha production in human THP1 cells; type: functional, cell-based
Blood = experiment: Inhibition of TNF-alpha-induced IL8 production in human whole blood cells; type: functional, cell-based
[6] = target: Vascular endothelial growth factor receptor 2 (Homo sapiens, UniProt P35968)
[7] = target: Tyrosine-protein kinase Lck (Homo sapiens, UniProt P06239)
[8] = Clearance in Sprague-Dawley rat 2 mg/kg, iv; type: ADME, organism-based; parameters: dose 2 mg/kg, route intravenous; conditions: in vivo
[9] = Volume of distribution at steady state in Sprague-Dawley rat 2 mg/kg, iv; type: ADME, organism-based; parameters: dose 2 mg/kg, route intravenous; conditions: in vivo, read-out: Vdss
[10] = Half life in Sprague-Dawley rat 2 mg/kg, iv; type: ADME, organism-based; parameters: dose 2 mg/kg, route intravenous; conditions: in vivo
[11] = AUC (0 to infinity) in Sprague-Dawley rat 10 mg/kg, po; type: ADME, organism-based; parameters: dose 10 mg/kg, route oral, time infinity; conditions: plasma
[12] = Oral bioavailability in Sprague-Dawley rat 10 mg/kg; type: ADME, organism-based; conditions: in vivo
[13] = Clearance in Sprague-Dawley rat 1 mg/kg, iv; type: ADME, organism-based; parameters: dose 1 mg/kg, route intravenous; conditions: in vivo
[14] = Volume of distribution at steady state in Sprague-Dawley rat 1 mg/kg, iv; type: ADME, organism-based; parameters: dose 1 mg/kg, route intravenous; conditions: in vivo, read-out: Vdss
[15] = Half life in Sprague-Dawley rat 1 mg/kg, iv; type: ADME, organism-based; parameters: dose 1 mg/kg, route intravenous; conditions: in vivo
[16] = AUC (0 to infinity) in Sprague-Dawley rat 1 mg/kg, po; type: ADME, organism-based; parameters: time infinity, dose 1 mg/kg, route oral; conditions: plasma
[17] = Oral bioavailability in Sprague-Dawley rat 1 mg/kg; type: ADME, organism-based; conditions: in vivo
[18] = Permeability from apical to basolateral side of human Caco-2 cells; type: ADME, cell-based
[19] = Permeability from basolateral to apical side of human Caco-2 cells; type: ADME, cell-based
Rattus norvegicus [20] = experiment: Antiinflammatory activity against collagen-induced arthritis in po dosed Lewis rat model assessed as inhibition of paw swelling; type: functional
Rattus norvegicus [21] = experiment: Antiinflammatory activity against collagen-induced arthritis Lewis rat model assessed as area under the paw swelling curve at 0.04 mg/kg, po relative to control; type: functional, organism-based; parameters: dose 0.04 mg/kg
[22] = target: Tyrosine-protein kinase Lyn (Homo sapiens, UniProt P07948); experiment: Inhibition of Lyn
[23] = Inhibition of PDGFR
Rattus norvegicus [24] = organism: Rattus norvegicus; experiment: Inhibition of LPS-induced TNFalpha production in Lewis rat; type: functional

Chain of Vascular endothelial growth factor receptor 2 (P35968 whole entry): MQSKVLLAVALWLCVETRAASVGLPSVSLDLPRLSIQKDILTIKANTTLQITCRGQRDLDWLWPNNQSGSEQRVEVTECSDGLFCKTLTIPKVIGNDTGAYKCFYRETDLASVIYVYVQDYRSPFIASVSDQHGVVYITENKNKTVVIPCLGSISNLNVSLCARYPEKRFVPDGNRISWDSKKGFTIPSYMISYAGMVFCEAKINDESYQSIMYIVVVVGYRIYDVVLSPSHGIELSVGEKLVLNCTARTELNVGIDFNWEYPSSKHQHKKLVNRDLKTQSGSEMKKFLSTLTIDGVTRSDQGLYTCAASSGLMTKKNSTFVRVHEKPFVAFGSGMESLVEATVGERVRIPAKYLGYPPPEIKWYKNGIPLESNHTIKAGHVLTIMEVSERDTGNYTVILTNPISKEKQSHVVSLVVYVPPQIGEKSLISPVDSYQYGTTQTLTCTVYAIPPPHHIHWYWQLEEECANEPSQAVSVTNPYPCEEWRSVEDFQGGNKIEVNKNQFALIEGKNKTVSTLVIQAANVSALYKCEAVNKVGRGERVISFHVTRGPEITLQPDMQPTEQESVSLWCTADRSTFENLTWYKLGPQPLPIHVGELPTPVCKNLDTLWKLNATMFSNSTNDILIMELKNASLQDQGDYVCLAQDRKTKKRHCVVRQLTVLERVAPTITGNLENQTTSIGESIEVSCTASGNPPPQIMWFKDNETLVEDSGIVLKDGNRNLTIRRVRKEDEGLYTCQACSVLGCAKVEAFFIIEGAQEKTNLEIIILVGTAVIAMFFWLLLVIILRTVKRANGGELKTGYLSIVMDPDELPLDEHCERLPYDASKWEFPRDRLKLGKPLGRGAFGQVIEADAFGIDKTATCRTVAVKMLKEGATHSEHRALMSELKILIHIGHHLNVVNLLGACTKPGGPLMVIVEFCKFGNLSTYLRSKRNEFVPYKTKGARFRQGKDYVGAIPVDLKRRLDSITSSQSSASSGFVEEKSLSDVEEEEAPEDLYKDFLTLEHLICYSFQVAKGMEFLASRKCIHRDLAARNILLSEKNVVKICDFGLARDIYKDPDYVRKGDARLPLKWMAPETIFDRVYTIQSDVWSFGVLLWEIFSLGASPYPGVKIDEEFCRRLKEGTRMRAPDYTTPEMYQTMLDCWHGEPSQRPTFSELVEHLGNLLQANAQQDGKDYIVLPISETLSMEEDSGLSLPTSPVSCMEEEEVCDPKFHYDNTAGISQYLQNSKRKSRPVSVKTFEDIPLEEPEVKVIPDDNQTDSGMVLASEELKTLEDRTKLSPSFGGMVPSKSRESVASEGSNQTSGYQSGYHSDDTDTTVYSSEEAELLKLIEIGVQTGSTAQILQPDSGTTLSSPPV
Chain of Mitogen-activated protein kinase 10 (P53779 whole entry): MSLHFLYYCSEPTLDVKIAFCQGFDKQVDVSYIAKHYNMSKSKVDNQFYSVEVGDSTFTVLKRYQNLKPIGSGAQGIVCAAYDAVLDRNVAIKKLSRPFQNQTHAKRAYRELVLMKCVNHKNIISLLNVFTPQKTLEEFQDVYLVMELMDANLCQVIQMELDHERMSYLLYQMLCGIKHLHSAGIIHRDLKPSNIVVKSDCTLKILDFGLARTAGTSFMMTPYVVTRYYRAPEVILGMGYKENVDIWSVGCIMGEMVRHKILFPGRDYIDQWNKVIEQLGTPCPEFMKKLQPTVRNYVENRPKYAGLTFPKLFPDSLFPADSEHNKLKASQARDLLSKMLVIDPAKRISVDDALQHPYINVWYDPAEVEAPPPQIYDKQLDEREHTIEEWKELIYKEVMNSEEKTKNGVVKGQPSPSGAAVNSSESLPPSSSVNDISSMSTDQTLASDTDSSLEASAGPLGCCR
Chain of Mitogen-activated protein kinase 8 (P45983 whole entry): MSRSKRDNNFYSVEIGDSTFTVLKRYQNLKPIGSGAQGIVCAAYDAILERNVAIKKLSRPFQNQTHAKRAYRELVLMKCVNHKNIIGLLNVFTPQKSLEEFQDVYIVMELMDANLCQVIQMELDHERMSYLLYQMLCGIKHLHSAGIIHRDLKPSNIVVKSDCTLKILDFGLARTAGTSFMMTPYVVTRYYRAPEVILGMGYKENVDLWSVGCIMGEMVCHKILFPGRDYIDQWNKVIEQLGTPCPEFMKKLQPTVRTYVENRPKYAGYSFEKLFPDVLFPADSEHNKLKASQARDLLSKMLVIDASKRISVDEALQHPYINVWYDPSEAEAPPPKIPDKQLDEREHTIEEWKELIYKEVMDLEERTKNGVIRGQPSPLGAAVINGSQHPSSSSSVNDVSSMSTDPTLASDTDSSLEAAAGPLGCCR
Chain of Mitogen-activated protein kinase 9 (P45984 whole entry): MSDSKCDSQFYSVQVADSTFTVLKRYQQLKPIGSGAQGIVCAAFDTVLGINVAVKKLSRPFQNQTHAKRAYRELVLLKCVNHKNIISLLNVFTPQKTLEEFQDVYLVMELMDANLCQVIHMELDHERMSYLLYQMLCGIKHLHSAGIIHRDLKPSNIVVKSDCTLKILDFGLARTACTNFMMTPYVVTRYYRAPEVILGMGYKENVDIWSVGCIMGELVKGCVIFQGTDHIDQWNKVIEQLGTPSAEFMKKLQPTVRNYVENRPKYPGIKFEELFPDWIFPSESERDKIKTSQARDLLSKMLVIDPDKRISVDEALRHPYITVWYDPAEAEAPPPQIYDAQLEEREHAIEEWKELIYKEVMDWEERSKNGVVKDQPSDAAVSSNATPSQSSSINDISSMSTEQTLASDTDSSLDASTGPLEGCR
Chain of Tyrosine-protein kinase Lck (P06239 whole entry): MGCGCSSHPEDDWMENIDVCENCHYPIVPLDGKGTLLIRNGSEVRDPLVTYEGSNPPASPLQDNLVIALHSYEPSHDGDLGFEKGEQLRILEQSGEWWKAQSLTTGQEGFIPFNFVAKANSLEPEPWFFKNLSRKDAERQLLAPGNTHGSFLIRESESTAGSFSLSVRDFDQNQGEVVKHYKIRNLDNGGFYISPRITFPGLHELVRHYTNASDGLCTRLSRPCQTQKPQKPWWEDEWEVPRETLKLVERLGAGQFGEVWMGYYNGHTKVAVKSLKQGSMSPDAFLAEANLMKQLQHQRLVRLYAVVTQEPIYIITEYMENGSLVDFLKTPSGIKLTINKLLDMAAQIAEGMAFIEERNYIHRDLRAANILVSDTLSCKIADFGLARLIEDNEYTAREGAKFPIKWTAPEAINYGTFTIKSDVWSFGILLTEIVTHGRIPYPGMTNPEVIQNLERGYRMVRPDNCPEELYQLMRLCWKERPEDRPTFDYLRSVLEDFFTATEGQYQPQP
Chain of Mitogen-activated protein kinase 14 (Q16539 whole entry): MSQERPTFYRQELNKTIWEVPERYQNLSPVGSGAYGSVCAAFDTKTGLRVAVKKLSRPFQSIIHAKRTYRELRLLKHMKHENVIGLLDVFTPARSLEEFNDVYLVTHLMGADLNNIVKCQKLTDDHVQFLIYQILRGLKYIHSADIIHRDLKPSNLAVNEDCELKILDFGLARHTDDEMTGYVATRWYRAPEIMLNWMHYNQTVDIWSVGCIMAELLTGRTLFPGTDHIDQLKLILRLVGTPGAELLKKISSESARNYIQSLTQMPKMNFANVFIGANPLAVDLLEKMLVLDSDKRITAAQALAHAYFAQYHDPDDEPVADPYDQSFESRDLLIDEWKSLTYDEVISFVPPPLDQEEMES
Chain of Mast/stem cell growth factor receptor Kit (P10721 whole entry): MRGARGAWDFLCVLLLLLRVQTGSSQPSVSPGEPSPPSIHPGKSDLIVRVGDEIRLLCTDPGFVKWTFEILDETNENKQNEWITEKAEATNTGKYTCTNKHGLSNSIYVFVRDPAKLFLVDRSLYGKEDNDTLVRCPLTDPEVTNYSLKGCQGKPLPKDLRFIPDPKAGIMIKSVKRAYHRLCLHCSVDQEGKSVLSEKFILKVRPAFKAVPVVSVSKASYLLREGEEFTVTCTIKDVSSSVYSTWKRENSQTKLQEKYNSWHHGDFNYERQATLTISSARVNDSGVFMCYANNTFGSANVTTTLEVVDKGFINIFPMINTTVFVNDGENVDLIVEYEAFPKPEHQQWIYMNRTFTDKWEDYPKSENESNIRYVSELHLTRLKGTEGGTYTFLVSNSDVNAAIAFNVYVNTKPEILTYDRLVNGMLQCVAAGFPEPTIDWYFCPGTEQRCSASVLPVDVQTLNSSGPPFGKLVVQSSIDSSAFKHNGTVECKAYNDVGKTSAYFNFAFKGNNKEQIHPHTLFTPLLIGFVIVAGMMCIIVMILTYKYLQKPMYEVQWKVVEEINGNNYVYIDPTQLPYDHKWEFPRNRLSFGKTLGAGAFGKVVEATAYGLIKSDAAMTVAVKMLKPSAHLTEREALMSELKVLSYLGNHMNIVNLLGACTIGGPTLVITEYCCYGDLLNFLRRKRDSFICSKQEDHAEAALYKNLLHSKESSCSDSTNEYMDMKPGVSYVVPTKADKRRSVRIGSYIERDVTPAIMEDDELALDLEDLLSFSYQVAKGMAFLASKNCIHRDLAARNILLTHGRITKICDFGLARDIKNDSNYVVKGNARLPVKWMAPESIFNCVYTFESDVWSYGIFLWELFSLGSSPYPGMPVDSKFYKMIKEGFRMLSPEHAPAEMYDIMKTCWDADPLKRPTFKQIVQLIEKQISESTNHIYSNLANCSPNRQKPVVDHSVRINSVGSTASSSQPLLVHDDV
Chain of Tyrosine-protein kinase Lyn (P07948 whole entry): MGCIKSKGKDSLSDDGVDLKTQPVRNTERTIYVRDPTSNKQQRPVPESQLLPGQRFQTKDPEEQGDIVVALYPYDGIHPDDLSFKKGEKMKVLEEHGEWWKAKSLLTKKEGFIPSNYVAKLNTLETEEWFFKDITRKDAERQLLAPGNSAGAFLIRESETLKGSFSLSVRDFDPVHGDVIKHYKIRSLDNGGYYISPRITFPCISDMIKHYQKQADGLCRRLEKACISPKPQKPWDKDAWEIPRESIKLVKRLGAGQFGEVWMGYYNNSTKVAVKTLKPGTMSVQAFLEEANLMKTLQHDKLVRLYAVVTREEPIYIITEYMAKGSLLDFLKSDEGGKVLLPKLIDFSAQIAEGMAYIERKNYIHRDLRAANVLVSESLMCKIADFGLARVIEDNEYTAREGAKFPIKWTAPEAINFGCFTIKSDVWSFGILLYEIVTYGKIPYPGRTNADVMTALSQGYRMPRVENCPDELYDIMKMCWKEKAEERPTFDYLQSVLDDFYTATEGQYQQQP

SMILES	pIC50 [1]	pIC50 [2]	pIC50 [3]	pIC50 [4]	pIC50 [5]	pIC50 (THP-1)	pIC50 (Blood)	pIC50 [6]	pIC50 [7]	clearance [8]	Vd [9]	half-life [10]	AUC(0-inf) [11]	bioavailability [12]	further results
O=C(NC1CC1)c1cccc(-c2ccc3c(N4CCOCC4)nncc3c2)c1	< 5.08	6.74													
Cc1ccc(C(=O)NC2CC2)cc1-c1ccc2c(-c3ccccc3C)nncc2c1										28.3 mL/min/kg	1.8 L/kg	1.4 h	2330 ng·h/mL	40%	
Cc1ccc(C(=O)NC2CC2)cc1-c1ccc2c(O[C@@H](C)C(F)(F)F)nncc2c1	5.97	9.00	< 5.00	5.11	< 5.00	9.40	8.57	5.57	< 5.30	5.83 mL/min/kg	4.7 L/kg	9.9 h	21100 ng·h/mL	72%	ED50 (Rattus norvegicus [20]): 0.04 mg/kg; AUC (Rattus norvegicus [21]): 51.1 ng·h/mL; pIC50 [22]: 6.02; pIC50 [23]: 7.06; ED50 (Rattus norvegicus [24]): < 0.03 mg/kg
Cc1ccc(C(=O)NC2CC2)cc1-c1ccc2c(O[C@H](C)C(F)(F)F)nncc2c1	5.93	9.10	< 5.00	5.36	5.02	9.05	8.09	6.30	5.22						
Cc1ccc(C(=O)NC2CC2)cc1-c1ccc2c(N3CCOC[C@@H]3C)nncc2c1	5.70	8.96	< 5.00	5.32	< 5.00	8.96	8.92	5.07	< 5.00	13.3 mL/min/kg	1.2 L/kg	1.3 h	7090 ng·h/mL	57%	

Second part, led by results:

pIC50 [1]	pIC50 [2]	pIC50 [3]	pIC50 [4]	pIC50 [5]	pIC50 (THP-1)	pIC50 (Blood)	pIC50 [6]	pIC50 [7]	clearance [8]	Vd [9]	half-life [10]	AUC(0-inf) [11]	bioavailability [12]	SMILES	further results
6.83	8.70	< 5.00	< 5.00	< 5.00	9.10	8.46	5.20	5.87						Cc1ccc(C(=O)NC2CC2)cc1-c1ccc2c(-c3ccccc3)nncc2c1	
6.28	8.92	< 5.00	5.01	< 5.00	9.15	9.05	5.52	5.42						Cc1ccc(C(=O)NC2CC2)cc1-c1ccc2c(N3CCOCC3)nncc2c1	clearance [13]: 28.3 mL/min/kg; Vd [14]: 3.5 L/kg; half-life [15]: 4.1 h; AUC(0-inf) [16]: 124 ng·h/mL; bioavailability [17]: 22%; Papp A→B [18]: 10.5 ×10⁻⁶ cm/s; Papp B→A [19]: 39.8 ×10⁻⁶ cm/s
5.97	8.72	< 5.00	< 5.00	< 5.00	7.60	8.37	5.29	< 5.00	20 mL/min/kg	2.8 L/kg	2.3 h	39 ng·h/mL	1%	Cc1ccc(C(=O)NC2CC2)cc1-c1ccc2c(NCCN3CCOCC3)nncc2c1	Papp A→B [18]: 0.3 ×10⁻⁶ cm/s; Papp B→A [19]: 31 ×10⁻⁶ cm/s
6.38	9.22	< 5.00	5.23	< 5.00	9.40	8.80	5.94	5.44	13.3 mL/min/kg	2.1 L/kg	1.8 h	10900 ng·h/mL	92%	Cc1ccc(C(=O)NC2CC2)cc1-c1ccc2c(OC(C)C)nncc2c1	
7.39	9.22													Cc1ccc(C(=O)NC2CC2)cc1-c1ccc2c(OC(C)C)cncc2c1	
